Source: ChEMBL document CHEMBL5233209, “A concise review of recent advances in anti-heart failure targets and its small molecules inhibitors in recent years” (Eur J Med Chem, 2020)

Assays:
[1] = Half life in human; type: ADME
[2] = Tmax in human plasma; type: ADME, cell-free
[3] = molecular target: cGMP-specific 3',5'-cyclic phosphodiesterase (Homo sapiens, UniProt O76074); test: Inhibition of PDE-5A (unknown origin)
Neprilysin = Neprilysin (Homo sapiens, UniProt P08473); test: Inhibition of neutral endopeptidase (unknown origin)
Sequence of Neprilysin (P08473 whole entry): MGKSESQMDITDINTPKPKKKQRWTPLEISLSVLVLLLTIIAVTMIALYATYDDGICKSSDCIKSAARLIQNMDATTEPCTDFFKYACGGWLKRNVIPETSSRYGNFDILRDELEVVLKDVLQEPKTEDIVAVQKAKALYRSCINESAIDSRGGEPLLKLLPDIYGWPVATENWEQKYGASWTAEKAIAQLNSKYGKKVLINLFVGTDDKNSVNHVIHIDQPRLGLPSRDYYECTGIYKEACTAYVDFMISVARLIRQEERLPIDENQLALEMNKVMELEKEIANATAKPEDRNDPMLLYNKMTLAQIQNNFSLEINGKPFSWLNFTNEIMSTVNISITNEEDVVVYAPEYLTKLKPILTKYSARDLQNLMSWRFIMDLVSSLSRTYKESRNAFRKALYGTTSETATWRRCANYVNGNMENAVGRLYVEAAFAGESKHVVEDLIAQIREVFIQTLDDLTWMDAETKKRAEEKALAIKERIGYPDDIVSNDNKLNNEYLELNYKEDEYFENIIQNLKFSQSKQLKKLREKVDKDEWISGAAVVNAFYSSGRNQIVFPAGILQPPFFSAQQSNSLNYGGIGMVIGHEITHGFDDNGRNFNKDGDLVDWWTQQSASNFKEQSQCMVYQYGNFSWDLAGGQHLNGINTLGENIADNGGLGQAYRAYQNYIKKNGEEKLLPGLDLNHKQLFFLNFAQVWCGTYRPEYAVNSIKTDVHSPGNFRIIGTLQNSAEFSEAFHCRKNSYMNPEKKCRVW

CCCCC(=O)N(Cc1ccc(-c2ccccc2-c2nnn[nH]2)cc1)[C@H](C(=O)O)C(C)C
half-life [1]: 12 h | Tmax [2]: 1.6 h

CC(C)=CCc1c(O)c2c(c3c1OC(C)(C)C=C3)CC=C(c1ccc3c(c1)OCCO3)C2=O
IC50 [3]: 2.67 µmol

CCCCC(=O)N(Cc1ccc(-c2ccccc2-c2nnn[n-]2)cc1)[C@H](C(=O)[O-])C(C)C.CCOC(=O)[C@H](C)C[C@@H](Cc1ccc(-c2ccccc2)cc1)NC(=O)CCC(=O)[O-].O.O.[Na+].[Na+].[Na+]
IC50 (Neprilysin): 5 nM

CC(C)=CCC1=C(O)c2c(occ(-c3ccc(O[N+](=O)[O-])cc3)c2=O)C2C=CC(C)(C)OC12 (configuration not stated)
IC50 [3]: 0.5 µmol

C[C@H](C[C@@H](Cc1ccc(-c2ccccc2)cc1)NC(=O)CCC(=O)O)C(=O)O [LBQ-657]
half-life [1]: 21 h

CCOC(=O)[C@H](C)C[C@@H](Cc1ccc(-c2ccccc2)cc1)NC(=O)CCC(=O)O [SACUBITRIL]
Tmax [2]: 0.5 h
